What is called TGI is the concentration giving total growth inhibition.

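Values below derive from 48-hour exposures of cells grown in 96-well plates, with endpoints linearly interpolated between the two concentrations bracketing the appropriate inhibition level. TGI marks complete inhibition of growth.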

Some test systems named below: T-47D breast; LOX IMVI melanoma; 786-0 renal; SK-OV-3 ovarian; SR leukemia; OVCAR-3 ovarian; PC-3 prostate; UO-31 renal; MCF7 breast; CAKI-1 renal; TK-10 renal; SF-268 CNS; CCRF-CEM leukemia.
Common to all, as to assay: DTP human tumour cell line panel, 48 h

As to `COc1c(=O)cc2cc[nH]c3ccn(C)c1c23`, the TGI with T-47D breast, in the test on LOX IMVI melanoma, in the test with 786-0 renal, with SK-OV-3 ovarian, in the test on SR leukemia and with OVCAR-3 ovarian was over 100 µM in each case. For the same compound, the TGI in the test on PC-3 prostate, in the test with UO-31 renal, in the test on MCF7 breast, with CAKI-1 renal, in the test on TK-10 renal and with SF-268 CNS was over 100 µM throughout.
On to `O=C(/C=C/c1ccccc1)Oc1ccc(C(=O)/C=C/c2ccc(Cl)cc2)cc1`, for which the concentration for total growth inhibition (TGI) with T-47D breast, with 786-0 renal, in the test with SK-OV-3 ovarian, in the test with SR leukemia, in the test on OVCAR-3 ovarian and with PC-3 prostate was over 100 µM in each case. In addition, the TGI in the test with UO-31 renal, with MCF7 breast, in the test with CCRF-CEM leukemia, in the test with CAKI-1 renal, in the test with TK-10 renal and with SF-268 CNS was over 100 µM each time.
As to `COC(=O)c1cc2c(c3c1CC(Cc1ccccc1)C3=O)CCC2` (stereo not given), the TGI in the test on T-47D breast, in the test with LOX IMVI melanoma, in the test with 786-0 renal, in the test on SK-OV-3 ovarian, in the test on SR leukemia and in the test on OVCAR-3 ovarian was over 100 µM in each case. Also, the TGI in the test with PC-3 prostate, in the test with MCF7 breast, with CCRF-CEM leukemia, in the test on TK-10 renal and in the test on SF-268 CNS was over 100 µM throughout.
For the compound `Clc1cc(Cl)cc(N=C/C=C/Nc2cc(Cl)cc(Cl)c2)c1`, the TGI in the test on T-47D breast was over 100 µM; in the test on 786-0 renal, 31.4 µM; in the test on SK-OV-3 ovarian, 89 µM; in the test on SR leukemia, 86.4 µM; with OVCAR-3 ovarian, 27.7 µM; with PC-3 prostate, 36.6 µM. The TGI with UO-31 renal amounted to 71.7 µM; in the test with MCF7 breast it was 27.2 µM; in the test on CCRF-CEM leukemia it was 60.9 µM; with CAKI-1 renal, 38.2 µM; in the test on TK-10 renal, 87 µM; in the test with SF-268 CNS it was 47.6 µM.
Take `O=[N+]([O-])/C(C(Cl)=C(Cl)Cl)=C(/Cl)SCc1ccccc1`: the TGI in the test on T-47D breast is 39.2 µM; in the test on LOX IMVI melanoma, 23.4 µM; with 786-0 renal, 3.09 µM; in the test with SK-OV-3 ovarian, 35.6 µM; in the test with OVCAR-3 ovarian, 12.1 µM; in the test with PC-3 prostate it was 31.4 µM. Moreover, the TGI came out at 4.83 µM in the test with UO-31 renal; 16 µM in the test with MCF7 breast; 0.448 µM with CCRF-CEM leukemia; 12.5 µM in the test on CAKI-1 renal; 18.9 µM in the test with TK-10 renal; 44.6 µM in the test with SF-268 CNS.
For `COC(=O)c1ccc2c(c1)S/C(=C/c1ccc3ccc4cccc5ccc1c3c45)S2`, the TGI in the test with T-47D breast was over 100 µM; with LOX IMVI melanoma it was over 100 µM; with 786-0 renal, over 100 µM; in the test on SK-OV-3 ovarian, over 100 µM; with OVCAR-3 ovarian it was 49.3 µM; in the test with PC-3 prostate, over 100 µM. In addition, the TGI with UO-31 renal, in the test on MCF7 breast, with CCRF-CEM leukemia, with CAKI-1 renal, with TK-10 renal and with SF-268 CNS was over 100 µM throughout.
In the case of `C[C@]12C[C@@H](OC(=O)[C@]1(C)O)[C@@H]([C@]1(O)CC[C@H]3[C@@H]4C[C@H]5O[C@]56C[C@H]5O[C@H]5C(=O)[C@]6(C)[C@H]4CC[C@@]31C)C2`, the TGI with T-47D breast, in the test with 786-0 renal, in the test with SK-OV-3 ovarian, with SR leukemia, with PC-3 prostate and in the test with UO-31 renal was over 50 µM throughout. For the same compound, the TGI in the test on MCF7 breast, in the test on CCRF-CEM leukemia, with CAKI-1 renal, in the test on TK-10 renal and in the test with SF-268 CNS was over 50 µM in each case.
As to `CCOC(=O)CNC(=O)C(CSC(=O)N(O)c1ccc(Cl)cc1)NC(=O)CCC(N)C(=O)OCC` (stereo not given), the TGI with T-47D breast, with LOX IMVI melanoma, with 786-0 renal, in the test with SK-OV-3 ovarian, with SR leukemia and with OVCAR-3 ovarian was over 50 µM in each case. For the same compound, the TGI in the test with PC-3 prostate, in the test on UO-31 renal, with MCF7 breast, with CCRF-CEM leukemia, with CAKI-1 renal and in the test with SF-268 CNS was over 50 µM throughout.
`CC1(C)OCC([C@H]2O[C@@H](CC(=S)NCCCCCCCCCCCCNC(=S)C[C@H]3O[C@@H](C4COC(C)(C)O4)[C@H]4OC(C)(C)O[C@H]43)[C@H]3OC(C)(C)O[C@H]32)O1` (stereo not given in full): the TGI in the test with T-47D breast, with LOX IMVI melanoma, in the test with 786-0 renal, with SR leukemia, in the test on OVCAR-3 ovarian and with PC-3 prostate was over 100 µM each time. In addition, the TGI with UO-31 renal was 95 µM; with MCF7 breast it was over 100 µM; with CAKI-1 renal it was over 100 µM; in the test with TK-10 renal, over 100 µM; with SF-268 CNS it was over 100 µM.
For the compound `Cc1ccc2nc(N/N=C/c3sccc3C)cc(C)c2c1`, the TGI with T-47D breast, in the test with LOX IMVI melanoma, in the test with 786-0 renal, with SK-OV-3 ovarian, in the test with OVCAR-3 ovarian and with PC-3 prostate was over 100 µM in each case. For the same compound, the TGI in the test on UO-31 renal, with MCF7 breast, in the test with CCRF-CEM leukemia, in the test with CAKI-1 renal, in the test with TK-10 renal and in the test with SF-268 CNS was over 100 µM in each case.
Take `Oc1ccc2cc(Br)ccc2c1-c1c(O)ccc2ccc(Br)cc12`: the TGI in the test with T-47D breast is 25.3 µM; with 786-0 renal, 28.2 µM; with SK-OV-3 ovarian, 24.6 µM; in the test with SR leukemia, 52.4 µM; with OVCAR-3 ovarian, 27.8 µM; in the test with PC-3 prostate, 25.3 µM. Moreover, the TGI in the test on UO-31 renal came out at 28.8 µM; in the test with MCF7 breast, 28.8 µM; in the test on CCRF-CEM leukemia, 28.3 µM; with CAKI-1 renal, 34 µM; with TK-10 renal it was 31.2 µM; with SF-268 CNS, 41.1 µM.
As for `O=C1C(Cl)C2(CC(/C=C/c3ccccc3)=NN2c2cccc(S(=O)(=O)O)c2)N1c1nc2ccccc2s1` (stereo not given), the TGI with T-47D breast was determined as 27.9 µM; with LOX IMVI melanoma, 13 µM; in the test on 786-0 renal, 31 µM; in the test on SR leukemia, 30 µM; in the test with PC-3 prostate, 34.4 µM; in the test with UO-31 renal it was 16.1 µM. Also, the TGI in the test on MCF7 breast was 36.6 µM; in the test with CCRF-CEM leukemia it was 32.4 µM; in the test on CAKI-1 renal, 22.6 µM; in the test on TK-10 renal, 30.9 µM; in the test on SF-268 CNS it was 43.4 µM.
